Target: T1, actin (G-actin, rabbit muscle) (Oryctolagus cuniculus, UniProt P68135)
T1 construct: gene ACTA1; rabbit muscle actin monomer; with mouse twinfilin C-terminal ADF-H domain (residues 176–316), in the crystal only
Experiment: co-crystal structure ([…] Å); fluorescence anisotropy association/dissociation kinetics
Type: binding

## ATP-ATTO-488
  k-: ~ (1 ± 0.4) × 10^−3 (k−) s^−1

From PMC7822861, “A functional family of fluorescent nucleotide analogues to investigate actin dynamics and energetics” (Nature Communications, 2021)
